≈ marks a conversion by molar mass, not a printed value.
Conditions: buffer; pH 7.4; 200.0 µM

`CCOc1ccc2c(c1)nc(C)n2C` and `COc1ccccc1CCNS(=O)(=O)c1cn(C)nc1C` cannot be ordered by solubility kinetic: greater than 28.5 µg/mL for the first, greater than 46.4 µg/mL for the second.

First: NC(=O)c1ccc(NC(=O)COC(=O)CCSc2ccccc2)cc1
Second: COc1ccc(Cl)cc1C(=O)NCCCSc1ccccc1
The solubility kinetic of the first is 1.9-fold higher: 15.1 µg/mL (≈ 42.1 µM) for the first, 7.8 µg/mL (≈ 23.2 µM) for the second.

First: Cc1noc(C)c1C(=O)OC(C)C(=O)Nc1ccc2c(c1)OCO2 (stereo not given)
Second: O=C(CSc1nc2ncccc2[nH]1)Nc1ccc2c(c1)OCO2
The solubility kinetic of the first is lower: 11.8 µg/mL (≈ 35.5 µM) for the first, greater than 49.3 µg/mL for the second.

First: COc1ccccc1NC(=O)C1CC(C(C)C)OC1=O (stereo not given)
Second: CCN(CC(=O)Nc1ccccc1OC)C(=O)CC1CC2CCC1C2 (stereo not given)
The solubility kinetic of the first is lower: 38.3 µg/mL (≈ 138 µM) for the first, greater than 51.7 µg/mL for the second.

Compared with `Cc1ccc(CC2C(=O)N(c3ccccc3)C(=O)C2C)cc1` (stereo not given), `CC1Cc2ccccc2N1C(=O)C1CC(=O)N(c2ccccc2)C1` (stereo not given) is 5.9-fold higher in solubility kinetic: 7.6 µg/mL (≈ 25.9 µM) for the first, 44.9 µg/mL (≈ 140 µM) for the second.

Going from `CC1CCN(c2nc3c(cc2C#N)COC(C)(C)C3)CC1` to `CCCCN(C)c1c(N2CCC(C(=O)OCC)CC2)c(=O)c1=O`, the solubility kinetic rises from 16 µg/mL (≈ 56.1 µM) to greater than 48.4 µg/mL.

First: O=c1c([N+](=O)[O-])c(N2CCCC2)c2ccccc2n1-c1ccccc1
Second: O=[N+]([O-])c1cc(C(F)(F)F)ccc1NC1CCN(Cc2ccccc2)CC1
The solubility kinetic of the first is 18-fold higher: 46.7 µg/mL (≈ 139 µM) for the first, 2.6 µg/mL (≈ 6.85 µM) for the second.

Going from `CS(=O)(=O)N1CCc2cc(C(=O)Nc3ccccc3)ccc21` to `O=C(CCc1ccccc1)Nc1ccc2c(c1)C(=O)OC2`, the solubility kinetic rises from 2.3 µg/mL (≈ 7.27 µM) to 15.4 µg/mL (≈ 54.7 µM) (6.7-fold).

Compared with `CC(C)N1C(=O)C(=O)N(CC(=O)N2CCc3ccccc32)C1=O`, `CC(C)CN1C(=O)c2ccc(NC(=O)c3ccco3)cc2C1=O` is lower in solubility kinetic: greater than 47.3 µg/mL for the first, 4.2 µg/mL (≈ 13.4 µM) for the second.

First: Cc1cc(C=O)c(C)n1-c1ccc(NC2CCCC2)c([N+](=O)[O-])c1
Second: O=C(NC(=S)NC1CCCCC1)c1ccccc1[N+](=O)[O-]
The solubility kinetic of the first is 1.7-fold higher: 5.1 µg/mL (≈ 15.6 µM) for the first, 3 µg/mL (≈ 9.76 µM) for the second.

First: COc1ccccc1CCC(=O)Nc1nccs1
Second: COc1ccc(/C=C/C(=O)NCc2ccccn2)cc1OC
The solubility kinetic of the first is lower: 8.6 µg/mL (≈ 32.8 µM) for the first, greater than 44.8 µg/mL for the second.

First: Cc1ccc(/C=C2\C(=O)NC(=S)N(c3ccc(F)cc3)C2=O)o1
Second: Cc1ccc(NC(=O)CCn2c(=O)[nH]c3ccsc3c2=O)cc1
The solubility kinetic of the first is 5.6-fold higher: 45.9 µg/mL (≈ 139 µM) for the first, 8.2 µg/mL (≈ 24.9 µM) for the second.

First: Cc1cc(C)c2c(CC(=O)NC3CCS(=O)(=O)C3)coc2c1 (stereo not given)
Second: CC(C)CN(C(=O)CSc1nc2ccccc2[nH]1)C1CCS(=O)(=O)C1 (stereo not given)
The solubility kinetic of the first is lower: 48.2 µg/mL (≈ 150 µM) for the first, greater than 57.2 µg/mL for the second.

`O=C(OCCCN1CCOCC1)c1ccc(O)c(O)c1` and `Cc1ccc(C)c(OCCCCN2CCNCC2)c1C.O=C(O)C(=O)O` cannot be ordered by solubility kinetic: greater than 42.2 µg/mL for the first, greater than 55 µg/mL for the second.

Going from `CC(NC(=O)c1ccc([N+](=O)[O-])cc1Cl)C1CC2CCC1C2` (stereo not given) to `O=C(Nc1cccc([N+](=O)[O-])c1)C1CC(=O)N(C2CCCCC2)C1` (stereo not given), the solubility kinetic rises from 28 µg/mL (≈ 86.7 µM) to 48.5 µg/mL (≈ 146 µM) (1.7-fold).

First: CC(=O)Nc1nnc(SCC(=O)NC2CC2)s1
Second: Cc1sc2ncnc(SCC(=O)NC(C)C(C)C)c2c1C (stereo not given)
The solubility kinetic of the first is higher: greater than 40.9 µg/mL for the first, 4.6 µg/mL (≈ 14.2 µM) for the second.

`CC(=O)c1ccc(S(=O)(=O)N2CCN(CC#N)CC2)cc1` and `Cc1nonc1OCCN1CCN(c2ccc([N+](=O)[O-])cc2)CC1` are within 1.5-fold of each other in solubility kinetic: 45.8 µg/mL (≈ 149 µM) for the first, 42.6 µg/mL (≈ 128 µM) for the second.

First: CC(C)(C)NC(=O)C1CCC(CNc2c(N3CCCCC3)c(=O)c2=O)CC1 (stereo not given)
Second: CC(OC(=O)c1ccc(Cl)cc1)C(=O)NCC1CCCCC1 (stereo not given)
The solubility kinetic of the first is higher: greater than 56.3 µg/mL for the first, 13.8 µg/mL (≈ 42.6 µM) for the second.

Compared with `Cc1cc(CSCc2ccc(Cl)cc2)no1`, `COc1ccc(Cl)cc1C(=O)O/N=C(\N)c1ccncc1` is 15-fold higher in solubility kinetic: 2.2 µg/mL (≈ 8.67 µM) for the first, 32.5 µg/mL (≈ 106 µM) for the second.

First: C=CCNC(=S)N(Cc1ccccc1)Cc1ccccc1
Second: S=c1[nH]nc(-c2cccc3ccccc23)n1-c1cccnc1
The solubility kinetic of the first is lower: 7.2 µg/mL (≈ 24.3 µM) for the first, greater than 45.7 µg/mL for the second.

Going from `COC(=O)CSc1ncnc2c(C)csc12` to `Cc1cc(Br)cc(Cl)c1OC(=O)c1cnccn1`, the solubility kinetic rises from 29.9 µg/mL (≈ 118 µM) to 47.4 µg/mL (≈ 145 µM) (1.6-fold).

`CC1CCCC(NC(=O)COC(=O)c2ccccc2[N+](=O)[O-])C1C` (stereo not given) and `COC(=O)C(C(=O)OC)c1ncccc1[N+](=O)[O-]` cannot be ordered by solubility kinetic: 48.6 µg/mL (≈ 145 µM) for the first, greater than 38.1 µg/mL for the second.

`c1cc2c(cc1CN1CCNCC1)OCO2` and `CN1CCN(C(=O)CCC(=O)NCc2ccc(F)cc2)CC1` are within 1.5-fold of each other in solubility kinetic: 31.8 µg/mL (≈ 144 µM) for the first, 45.7 µg/mL (≈ 149 µM) for the second.

`CC(CC(=O)O)CC(=O)Nc1cccc([N+](=O)[O-])c1` (stereo not given) and `COCCCN(CC(=O)O)S(=O)(=O)c1cccc(Cl)c1` cannot be ordered by solubility kinetic: greater than 39.9 µg/mL for the first, greater than 48.3 µg/mL for the second.

`NC(=S)Nc1ccc(C(F)(F)F)cc1Cl` and `Cc1cc(C)cc(NC(=S)NC(=O)C2CC2)c1` are within 1.5-fold of each other in solubility kinetic: 33.5 µg/mL (≈ 132 µM) for the first, 30 µg/mL (≈ 121 µM) for the second.

Compared with `CC(C)(C)NC(=O)C(OC(=O)c1cccs1)c1ccccc1` (stereo not given), `O=C([O-])c1cc(-c2cccnc2)nc2ccccc12.[K+]` is 2.6-fold higher in solubility kinetic: 3.3 µg/mL (≈ 10.4 µM) for the first, 8.7 µg/mL for the second.

`O=[N+]([O-])c1ccc(C(O)C[n+]2ccccc2)cc1.[I-]` (stereo not given) and `c1ccc(CSc2nc3ncccn3n2)cc1` cannot be ordered by solubility kinetic: 52.1 µg/mL for the first, greater than 36.3 µg/mL for the second.

Going from `Cc1ccnc(Nc2nc(-c3ccc(O)c(O)c3)cs2)c1` to `Clc1ccc(-c2nc3ccccc3[nH]2)cn1`, the solubility kinetic rises from 8.7 µg/mL (≈ 29.1 µM) to 31.8 µg/mL (≈ 138 µM) (3.7-fold).

`COc1ccc(NC(=O)CC2CCCC2)cc1OC` and `COc1ccccc1NC(=O)c1ccc(NC(=O)CN2CCCCC2)cc1.O=C(O)C(=O)O` cannot be ordered by solubility kinetic: greater than 39.5 µg/mL for the first, greater than 68.6 µg/mL for the second.

First: S=C(NC1CCCCC1)N1CCN(c2ncccn2)CC1
Second: CCCC(=O)Nc1cc(C(=O)O)ccc1Sc1ccc(C)cc1
The solubility kinetic of the first is lower: 9.6 µg/mL (≈ 31.4 µM) for the first, greater than 49.4 µg/mL for the second.
